From patent US10793864B2, “Methods and compositions for assessing viral nuclear localization” (GEORGE MASON UNIVERSITY, priority 2015, dated 2020)
Entries after “also recorded” stand apart in the source; their conditions may differ.

Tests used:
Format in all cases: cell-based
HIV-1NL4-3 = assay: HIV-1 replication measured by p24 release in CEM-SS T cells; settings: CEM-SS T cells pre-treated 1 hour, infected with HIV-1NL4-3
Method: (§1) Briefly, CEM-SS T cells were pre-treated with DMSO or CK548 for 1 hour, and then infected with HIV-1NL4-3. Viral replication was measured by p24 release (see FIG. 5A). Drug cytotoxicity was meaured in CK548-treated and infected cells by PI staining and flow cytometry (see FIG. 5B). Shown is the percentage of PI-positive cells. […] Cells were infected for 2 hours, washed, and cultured in the presence of the drug for 48 hours. Total cellular DNA was extracted at 48 hours post infection and then PCR-amplified to quantify viral DNA (for results see FIG. 5C). Viral 2-LTR-circles were also measured (see FIG. 5D). The relative ratio of 2-LTR circles to viral total DNA was also plotted.

CEM-SS T cells = assay: Drug cytotoxicity by PI staining and flow cytometry; settings: CK548-treated and infected CEM-SS T cells; at 50 μM and below
Method: as §1

[1] = tested on: single-cycle HIV-1(Env) pseudotyped with HIV-1 gp160; assay: Viral nuclear migration, 2-LTR circles measured after single-cycle HIV-1 infection; settings: CEM-SS T cells, 48 hours post infection
Method: as §1
(§2) The nuclear migration assay was performed in two CEM-SS-based cells, shArp-12 and shArp-13, which we recently constructed. In both shArp-12 and shArp-13, the actin branching factor Arp3 was stably knockdown (80% knockdown). […] We will re-measure the nuclear entry defect by BLNMA. […] We will also perform BLNMA to confirm the phenotype.

[2] = tested on: single-cycle HIV-1(Env) pseudotyped with HIV-1 gp160; assay: PCR quantification of viral DNA after single-cycle HIV-1 infection; settings: CEM-SS T cells, 48 hours post infection
Method: as §1, §2

O=C1CSC(c2cccc(Br)c2)N1c1cc(Cl)ccc1O (stereo not shown) [CK548]
HIV-1 infection (viral replication by p24 release) (HIV-1NL4-3): inhibits HIV-1 infection
Drug cytotoxicity (percentage of PI-positive cells) (CEM-SS T cells): No drug cytotoxicity was detectable
HIV nuclear migration (2-LTR circles) [1]: inhibits HIV-1 infection and viral nuclear migration; also recorded: dramatically inhibited HIV nuclear migration
HIV DNA synthesis (viral total DNA by PCR) [2]: stimulating HIV DNA synthesis
